From patent US6964949B2, “Pharmaceutical compositions for promoting the growth of gram-positive bacilli and increasing the acidity in the vagina and the use thereof” (Shanghai Jiao Da Onlly Co., Ltd., priority 2000, dated 2005)

Legend:
Format in all cases: cell-based
[1] = system: vaginal secretion specimen of a patient suffering from typical bacterial vaginosis; assay: Experiment Example 3: pH of culture samples (production of acids); conditions: 2.5% saccharide, 1.0% yeast extract, 1.6% xanthan gum, pH 6.2, candle jar, 37° C.
Description: • (1) The preparation of the compositions: Maltose and sucrose were used respectively to prepare the following composition according to the methods mentioned above: • A. 2.5% maltose, 1.0% yeast extract, 1.6% xanthan gum, pH adjusted to 6.2; • B. 2.5% sucrose, 1.0 yeast extract, 1.6% xanthan gum, pH adjusted to 6.2; • (2) The preparation of the test tubes: Compositions as prepared above were filled into the test tubes, with each tube containing 5 ml, sterilized, and kept until use for experiment. • (3) Specimen suspension: Vaginal secretion was taken from one of the patients suffering from typical bacterial vaginosis with a cotton swab, then the swab was washed in 2 ml sterilized Trypcase-soy Broth immediately, and thus the specimen suspension was ready. […] Then the tubes were placed in a candle jar and cultivated at 37° C. After 24 hours and 48 hours' culture, culture samples were taken respectively from each of the tubes, then the Gram smears of the samples were observed and the pH values of culture samples were tested.

[2] = system: vaginal secretion specimen of a patient suffering from typical bacterial vaginosis; assay: Experiment Example 2: pH of culture samples (production of acids); conditions: for pH values in the tube compared with the other tubes: 10% saccharide tube, after 24 or 48 hours culture; for pH, 24 hours-culture / pH, 48 hours-culture: 10.0% saccharide, 1.0% yeast extract, 1.6% xanthan gum (dextrin 0.5%, starch none), pH 6.2, candle jar, 37° C.
Description: • (1)The preparation of the compositions: Different saccharides were used respectively to prepare the following compositions according to the methods mentioned above: glucose, fructose, galactose, mannose, maltose, sucrose, lactose, lactulose, mycose, cellobiose, melibiose, melitose, malto-oligosaccharide, isomaltooligosaccharide and fructooligosaccharide, dextrin, starch, and glycogen: • A. 5% glucose, 1.0% yeast extract, 1.6% xanthan gum, pH adjusted to 6.2; • B. 5% fructose, 1.0% yeast extract, 1.6% xanthan gum, pH adjusted to 6.2; • C. 5% galactose, 1.0% yeast extract, 1.6% xanthan gum, pH adjusted to 6.2; • D. 5% mannose, 1.0% yeast extract, 1.6% xanthan gum, pH adjusted to 6.2; • E. 10.0% maltose, 1.0% yeast extract, 1.6% xanthan gum, pH adjusted to 6.2; • F. 10.0% sucrose, 1.0% yeast extract, 1.6% xanthan gum, pH adjusted to 6.2; • G. 10.0% lactose, 1.0% yeast extract, 1.6% xanthan gum, pH adjusted to 6.2; • H. 10.0% lactulose, 1.0% yeast extract, 1.6% xanthan gum, pH adjusted to 6.2; • I. 10.0% cellobiose, 1.0% yeast extract, 1.6% xanthan gum, pH adjusted to 6.2; • J. 10.0% mycose, 1.0% yeast extract, 1.6% xanthan gum, pH adjusted to 6.2; • K. 10.0% melibiose, 1.0% yeast extract, 1.6% xanthan gum, pH adjusted to 6.2; • L. 10.0% melitose, 1.0% yeast extract, 1.6% xanthan gum, pH adjusted to 6.2; • M. 10.0% maltooligosaccharide, 1.0% yeast extract, 1.6% xanthan gum, pH adjusted to 6.2; • N. 10.0% isomaltooligosaccharide, 1.0% yeast extract, 1.6% xanthan gum, pH adjusted to 6.2; • O. 10.0% fructooligosaccharide, 1.0% yeast extract, 1.6% xanthan gum, pH adjusted to 6.2; • P. 10.0% dextrin, 1.0% yeast extract, 0.5% xanthan gum, pH adjusted to 6.2; • Q. 10.0% starch, 1.0% yeast extract, pH adjusted to 6.2; • R. 10.0% glycogen, 1.0% yeast extract, 1.6% xanthan gum, pH adjusted to 6.2. • (2)The preparation of the test tubes: The compositions prepared above were filled into test tubes, with each tube containing 5 ml, sterilized, and kept until use for experiment. • (3) Specimen suspension: Vaginal secretion was taken from one of the patients suffering from typical bacterial vagmosis with a cotton swab, then the swab was washed in 2 ml sterilized Trypcase-soy Broth immediately, and thus the specimen suspension was ready. […] Then the tubes were placed in a candle jar and cultivated at 37° C. After 24 hours and 48 hours' culture, culture samples were taken respectively from each of the tubes, then the Gram smears of the samples were observed and the pH values of culture samples were tested. […] Meanwhile the pH values in most of the composition tubes decreased to different levels. […] And maltose and sucrose exert better effect in promoting the growth of Gram-positive bacilli and the production of acids than that of the other kinds of oligosaccharides.

Gram-negative cocci = assay: Experiment Example 2: comparison of saccharides, specimen culture, Gram smear; conditions: 10.0% saccharide, 1.0% yeast extract, 1.6% xanthan gum (dextrin 0.5%, starch none), pH 6.2, candle jar, 37° C.
[3] = system: vaginal secretion specimen of a patient suffering from typical bacterial vaginosis; assay: Experimental Example 1: pH of culture samples (production of acids); conditions: 10.0% sucrose, 1.0% yeast extract, 1.6% xanthan gum, pH 5.0, anaerobic, 37° C.
Description: • (1) The preparation of the composition: Sucrose was used to prepare the following composition according to the method mentioned above: sucrose 10.0% (W/V), yeast extract 1.0% (W/V), Xanthan gum 1.6% (W/V), pH 5.0; then filled the composition into the tubes after sterilization, with each tube containing 5 ml, and pre-reduced for use. • (2) Specimen suspension: Vaginal secretion was taken from one of the patients suffering from typical bacterial vaginosis with a cotton swab, then the swab was washed in 2 ml sterilized Trypcase-soy Broth immediately, and thus the specimen suspension was ready. […] The tubes were placed in an incubator for cultivation, at 37° C., anaerobically. Then, culture samples were taken from the tubes at 10 hours and 24 hours later respectively. The Gram smears of the samples were observed and the pH values of the samples were measured.

| SMILES | pH, 24 hours-culture [1] | pH, 48 hours-culture [1] | pH values in the tube compared with the other tubes [2] | pH, 24 hours-culture [2] | pH, 48 hours-culture [2] | Bacteria G − c (Gram-negative cocci), 24 hours-culture (Gram-negative cocci) | Bacteria G − c (Gram-negative cocci), 48 hours-culture (Gram-negative cocci) | pH, 10 hours-culture ([3]; 10 hours) | pH, 24 hours-culture ([3]; 24 hours) |
| --- | --- | --- | --- | --- | --- | --- | --- | --- | --- |
| OC[C@H]1O[C@H](O[C@H]2[C@H](O)[C@@H](O)[C@H](O)O[C@@H]2CO)[C@H](O)[C@@H](O)[C@@H]1O [Maltose, maltose] | 7.0 | 6.4 | lower than that of the other tubes | 4.6-48 | 4.4-4.6 | G − c, − (No or less than one bacterium per field of version under oil-immersion lens) | G − c, − (No or less than one bacterium per field of version under oil-immersion lens) |  |  |
| OC[C@H]1O[C@@](CO)(O[C@H]2O[C@H](CO)[C@@H](O)[C@H](O)[C@H]2O)[C@@H](O)[C@@H]1O [Sucrose, sucrose] | 6.2 | 6.7 | lower than that of the other tubes | 4.8-5.1 | 4.6-4.8 | G − c, − (No or less than one bacterium per field of version under oil-immersion lens) | G − c, − (No or less than one bacterium per field of version under oil-immersion lens) | 5.0 | 4.0 |
